Assay results reported in patent publication US20260356826A1, “SALTS OF AMINO QUINAZOLINE DERIVATIVES” (CHIESI FARMACEUTICI S.P.A., priority 2023, published 2026).
Converted amounts (≈) assume the structure as drawn. “Also recorded” adds a separate entry of the source. Where a name gives a salt, the structure may show the parent alone. Read-outs that look alike come from different tables or passages of the source.

Assays:
Format in all cases: physicochemical
[1] = Comparative stability at 40 °C and 75% RH at open conditions (UPLC/UV and XRPD); conditions: 40 °C/75% RH open; for % area main peak (LC/UV): 0 days
Description: In a second experiment, approximately 100 mg of compound A mesylate salt Form 2 according to Example 2, free base Form A according to Example 1 and esylate salt Form 1 according to Example 6 were stored in three open amber glass vials covered with filter paper to simulate open conditions. The samples were stored in a stability chamber at 75% RH and 40 °C to compare their stability. At the time points 0, 28, 56, 84 days the corresponding samples were removed from the stability chambers. After conditioning at RT, the samples were analyzed by UPLC/UV and XRPD.

[2] = Formulations with polymer: drug content and appearance; conditions: for Found conc.: nominal 40 mg/ml
Description: The formulation having a 0.05 M citrate buffer concentration was chosen to be tested with the addition of polymers to investigate the effect due to a potential viscosity increase.
Different percentage of polymers were used, e.g. 5% w/v of polyvinylpyrrolidone (PVP) 40 or 1% w/v HPMC.
The formulations were studied with or without the use of the surfactant D-α-tocopherol polyethylene glycol succinate (Vit. E TPGS, Sigma Aldrich; CAS: 9002-96-4) in 0.05 M citrate buffer at pH 2.5 at the nominal concentration of 40 mg/ml. To prepare the vehicle the proper amount of citric acid was dissolved in water in a volumetric flask, then the pH was increased up to 2.5 using 0.1 M NaOH. Then water was added and brought to the final volume. The polymers PVP 40 (Sigma Aldrich; CAS: 9003-39-8) or HPMC (viscosity 46-60 cP; Sigma Aldrich; CAS: 9004-65-3) were gently dissolved in citrate buffer and left under magnetic stirring for at least 1 hour to their complete hydration. When required, Vit. E TPGS was subsequently added to the media and gently left under magnetic stirring to avoid bubbles formation.
The required volume of vehicle was added to a known amount of Compound A free base Form A or Mesylate salt Form 2, then sonicated at RT for at least 10 min. The formulation was kept under magnetic stirring for at least 10 min before analysis.

[3] = Dissolution in Fasted State Simulated Gastric Fluid (FaSSGF), manual experiment, 37 °C; conditions: for Solubility: 37 °C
Description: The dissolution in Fasted State Simulated Gastric Fluid (FaSSGF) of mesylate salt Form 2 of the compound A of Example 2 and esylate salt Form 1 of Example 6 in comparison with the free base Form A and with other salts was tested by means of manual experiment. The medium for simulated oral fluids was FaSSGF obtained from Biorelevant.com Ltd. The experiments were conducted for 60 minutes at 37 °C.
General preparation of salts: in a round-bottomed flask, 200 mg of compound A free base Form A according to Example 1 (0.52 mmol) were suspended in 5 ml of solvent and stirred at RT. Acetone was employed for bromide, ethanedisulfonate, malonate, sulfate, saccharinate, tosylate, orotate, besylate, hemisulfate, phosphate and tartrate salts; water was employed for chloride salt; ethyl formate was employed for maleate, oxalate, gentisicate, fumarate and mandelate salts; tetrahydrofuran was employed for camphorsulfonate and pamoate salts; isopropyl acetate was employed for 4-hydroxybenzoate and methanol for camphorate salt. The corresponding acid was added under stirring in equimolar amount (except for hemisulfate, added in 0.5 molar amount). After 1 hour the crystalline solid was isolated by filtration, washed with the corresponding solvent (2×1 ml) and dried under nitrogen for 2 hours.
The quantification of the dissolved amount was done by LC/UV system at different checkpoints up to 60 minutes. The saturation solution concentration was around 25-30 mg/ml. […] In a second experiment, the quantification was repeated with saturation solution concentration 170 mg/ml for the mesylate salt Form 2 and 100 mg/ml for the esylate salt Form 1. The results are reported in tables 8A, 8B, 8C, 8D and FIG. 28.

[4] = Dissolution in simulated oral fluids (FaSSGF, FaSSIF, FeSSIF), DISS Profiler, 37 °C, 24 hours; conditions: for Maximum solubility: 1440 min
Description: The dissolution of mesylate salt Form 2 of the compound A in comparison with the free base Form A of compound A was tested in all simulated oral fluids. The experiments were conducted with DISS Profiler 6 Channel Pion. The experiments were conducted until 24 hours at 37 °C.
The mediums used, namely FaSSGF (Fasted State Simulated Gastric Fluid), FaSSIF (Fasted State Simulated Intestinal Fluid) and FeSSIF (Fed State Simulated Intestinal Fluid) were obtained from Biorelevant.com Ltd. The medium compositions are listed in table 9. The saturated solution concentrations were about 14-15 mg/ml (as free base) in FaSSGF and about 3-4 mg/ml (as free base) in FaSSIF and FeSSIF.

[5] = 1% w/v HPMC, 1% w/v Vit. E TPGS, 0.05 M citrate buffer pH 2.5
[6] = 5% w/v PVP, 1% w/v Vit. E TPGS, 0.05 M citrate buffer pH 2.5
[7] = 5% w/v PVP, 0.05 M citrate buffer pH 2.5

What does the source list for `COc1cc(-c2ccc(F)cn2)cc2c(N[C@H](C)c3noc(C)n3)ncnc12` [free base Form A, (R)-6-(5-fluoropyridin-2-yl)-8-methoxy-N-(1-(5-methyl-1,2,4-oxadiazol-3-yl)ethyl)quinazolin-4-amine]?
% area main peak (LC/UV) [1]: 99.8 % area; Appearance [2, 5]: Suspension; Mean recovery [2, 5]: 104.9%; Found conc. [2, 5]: 41.96 mg/mL; Appearance [2, 6]: Suspension; Mean recovery [2, 6]: 111.18%; Found conc. [2, 6]: 44.47 mg/mL; Appearance [2, 7]: Suspension; Mean recovery [2, 7]: 100.3%; Found conc. [2, 7]: 40.12 mg/mL; Appearance ([2]; all formulations with polymer): suspensions; Solubility ([3]; first experiment (saturation conc. around 25-30 mg/ml), 5 min): 6.87 mg/mL (≈ 18.1 mM); Solubility ([3]; first experiment, 10 min): 7.01 mg/mL (≈ 18.4 mM); Solubility ([3]; first experiment, 20 min): 6.84 mg/mL (≈ 18 mM); Solubility ([3]; first experiment, 40 min): 6.89 mg/mL (≈ 18.1 mM); Solubility ([3]; first experiment, 60 min): 6.89 mg/mL (≈ 18.1 mM); Solubility ([3]; second experiment (saturation conc. 170 mg/ml mesylate, 100 mg/ml esylate), 0 min): 0.63 mg/mL (≈ 1.66 mM); Solubility ([3]; second experiment, 15 min): 12.77 mg/mL (≈ 33.6 mM); Solubility ([3]; second experiment, 30 min): 11.89 mg/mL (≈ 31.3 mM); Solubility ([3]; second experiment, 60 min): 13.47 mg/mL (≈ 35.4 mM); pH at the end of the experiment ([4]; FaSSGF): 3.1; Time to decrease of solubility / duration of sustained solubility ([4]; FaSSGF, 37 °C): approximately 3 hours; Dissolution behaviour ([4]; FaSSGF, 37 °C, 24 hours): steady increase of solubility, but not complete solubilisation; pH at the end of the experiment ([4]; FaSSIF): 6.4; Maximum solubility ([4]; FaSSIF, 37 °C, 24 hours): 0.04 mg/mL; pH at the end of the experiment ([4]; FeSSIF): 5.1; solubility at 24 h ([4]; fassgf, 37 °C, 24 hours, read-out: Maximum solubility): ~11 mg/mL (≈ 28.9 mM); solubility at 24 h ([4]; fessif, 37 °C, 24 hours, read-out: Maximum solubility): 0.1 mg/mL (≈ 0.263 mM)

Which results are given for `COc1cc(-c2ccc(F)cn2)cc2c(N[C@H](C)c3noc(C)n3)ncnc12` [mesylate salt Form 2, (R)-6-(5-fluoropyridin-2-yl)-8-methoxy-N-(1-(5-methyl-1,2,4-oxadiazol-3-yl)ethyl)quinazolin-4-amine]?
Stability ([1]; 84 days): surprisingly good stability during stressed storage; % area main peak (LC/UV) [1]: 99.9 % area; Appearance [2, 5]: Solution; Mean recovery [2, 5]: 111.10%; Found conc. [2, 5]: 44.44 mg/mL; Appearance [2, 6]: Solution; Mean recovery [2, 6]: 112.20%; Found conc. [2, 6]: 44.87 mg/mL; Appearance [2, 7]: Solution; Mean recovery [2, 7]: 116.30%; Found conc. [2, 7]: 46.51 mg/mL; Formulability in solution compared to free base Form A ([2]; with polymers, all excipients considered): better formulability in solution; Solubility ([3]; first experiment (saturation conc. around 25-30 mg/ml), 5 min, listed as mesylate Form 2, 5 min): 31.44 mg/mL; Solubility ([3]; first experiment, 10 min, listed as mesylate Form 2, 10 min): 31.92 mg/mL; Solubility ([3]; first experiment, 20 min, listed as mesylate Form 2, 20 min): 31.65 mg/mL; Solubility ([3]; first experiment, 40 min, listed as mesylate Form 2, 40 min): 31.16 mg/mL; Solubility ([3]; first experiment, 60 min): ≥ 25 mg/mL; Solubility ([3]; first experiment, 60 min, listed as mesylate Form 2, 60 min): 31.30 mg/mL; Solubility ([3]; second experiment (saturation conc. 170 mg/ml mesylate, 100 mg/ml esylate), 0 min, listed as mesylate Form 2, 0 min): 19.25 mg/mL; Solubility ([3]; second experiment, 15 min, listed as mesylate Form 2, 15 min): 151.67 mg/mL; Solubility ([3]; second experiment, 30 min, listed as mesylate Form 2, 30 min): 159.96 mg/mL; Solubility ([3]; second experiment, 60 min, listed as mesylate Form 2, 60 min): 169.82 mg/mL; Solubility compared to free base Form A ([3]; 60 minutes): consistently higher solubility than the free base Form A during the 60 minutes time; Dissolution ([3]; first experiment, saturation conc. around 25-30 mg/ml): completely dissolved; pH at the end of the experiment ([4]; FaSSGF): 1.8; Time to decrease of solubility / duration of sustained solubility ([4]; FaSSGF, 37 °C): at least 24 hours; Dissolution behaviour ([4]; FaSSGF, 37 °C, 24 hours): complete solubilisation was achieved; also recorded: no decrease in the solubility during the 24 hours; Maximum solubility ([4]; FaSSGF, 37 °C, 24 hours): 14.00 mg/mL; pH at the end of the experiment ([4]; FaSSIF): 6.1; Maximum solubility ([4]; FaSSIF, 37 °C, 24 hours): 0.10 mg/mL; pH at the end of the experiment ([4]; FeSSIF): 5.0; Maximum solubility ([4]; FeSSIF, 37 °C, 24 hours): 0.07 mg/mL; solubility at 24 h ([4]; fassif, read-out: Solubility by UPLC/UV/MS at the end of the experiment): 0.03 mg/mL; solubility at 24 h ([4]; fessif, read-out: Solubility by UPLC/UV/MS at the end of the experiment): 0.17 mg/mL
